Data taken from ChEMBL document CHEMBL5678818, “Discovery of potent SOS1 inhibitors that block RAS activation via disruption of the RAS-SOS1 interaction” (Proc Natl Acad Sci U S A, 2019).

What was measured:
[1] = biological target: Bone morphogenetic protein receptor type-1A (Homo sapiens) (UniProt P36894); assay: Inhibition of BMPR1A (unknown origin) assessed as residual activity at 1000 nM by KINOMEscan analysis relative to control
[2] = biological target: T1, Interleukin-1 receptor-associated kinase 4 (Homo sapiens) (UniProt Q9NWZ3); assay: Inhibition of IRAK4 (unknown origin) assessed as residual activity at 1000 nM by KINOMEscan analysis relative to control
T1 sequence (whole entry): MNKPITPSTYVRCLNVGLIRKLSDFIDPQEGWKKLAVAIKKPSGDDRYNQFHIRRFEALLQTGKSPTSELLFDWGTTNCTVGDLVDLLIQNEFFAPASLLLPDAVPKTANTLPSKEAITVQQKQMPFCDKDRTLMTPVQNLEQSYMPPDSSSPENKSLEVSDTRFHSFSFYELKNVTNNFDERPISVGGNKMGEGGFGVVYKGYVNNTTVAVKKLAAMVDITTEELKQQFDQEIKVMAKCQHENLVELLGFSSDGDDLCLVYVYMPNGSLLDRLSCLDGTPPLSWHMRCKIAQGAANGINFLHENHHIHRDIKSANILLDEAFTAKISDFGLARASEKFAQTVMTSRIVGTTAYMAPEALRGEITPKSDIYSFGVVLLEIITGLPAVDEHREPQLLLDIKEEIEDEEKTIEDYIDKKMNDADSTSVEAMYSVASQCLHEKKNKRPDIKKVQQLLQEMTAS

[3] = biological target: T2, Tyrosine-protein kinase ITK/TSK (Homo sapiens) (UniProt Q08881); assay: Inhibition of ITK (unknown origin) assessed as residual activity at 1000 nM by KINOMEscan analysis relative to control
T2 sequence (whole entry): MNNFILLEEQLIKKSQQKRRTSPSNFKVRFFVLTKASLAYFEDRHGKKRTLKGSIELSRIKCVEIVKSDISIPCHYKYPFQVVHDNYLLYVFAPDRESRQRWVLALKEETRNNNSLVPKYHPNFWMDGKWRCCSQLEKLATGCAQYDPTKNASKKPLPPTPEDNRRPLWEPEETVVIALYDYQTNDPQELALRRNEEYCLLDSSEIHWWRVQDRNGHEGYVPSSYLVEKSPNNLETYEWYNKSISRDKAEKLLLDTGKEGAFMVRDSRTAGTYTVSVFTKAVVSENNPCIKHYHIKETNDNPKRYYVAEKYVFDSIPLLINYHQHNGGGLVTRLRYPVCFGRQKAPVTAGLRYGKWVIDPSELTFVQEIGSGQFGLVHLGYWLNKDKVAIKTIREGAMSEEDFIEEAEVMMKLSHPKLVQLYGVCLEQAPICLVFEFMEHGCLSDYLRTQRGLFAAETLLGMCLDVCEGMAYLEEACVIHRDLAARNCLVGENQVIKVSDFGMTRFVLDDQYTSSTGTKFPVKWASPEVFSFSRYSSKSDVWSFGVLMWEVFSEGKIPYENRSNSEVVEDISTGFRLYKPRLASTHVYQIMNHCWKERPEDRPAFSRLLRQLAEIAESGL

[4] = biological target: Dual specificity mitogen-activated protein kinase kinase 1 (Homo sapiens) (UniProt Q02750); assay: Inhibition of MEK1 (unknown origin) assessed as residual activity at 1000 nM by KINOMEscan analysis relative to control
Sequence of Dual specificity mitogen-activated protein kinase kinase 1 (Homo sapiens) (Q02750 whole entry): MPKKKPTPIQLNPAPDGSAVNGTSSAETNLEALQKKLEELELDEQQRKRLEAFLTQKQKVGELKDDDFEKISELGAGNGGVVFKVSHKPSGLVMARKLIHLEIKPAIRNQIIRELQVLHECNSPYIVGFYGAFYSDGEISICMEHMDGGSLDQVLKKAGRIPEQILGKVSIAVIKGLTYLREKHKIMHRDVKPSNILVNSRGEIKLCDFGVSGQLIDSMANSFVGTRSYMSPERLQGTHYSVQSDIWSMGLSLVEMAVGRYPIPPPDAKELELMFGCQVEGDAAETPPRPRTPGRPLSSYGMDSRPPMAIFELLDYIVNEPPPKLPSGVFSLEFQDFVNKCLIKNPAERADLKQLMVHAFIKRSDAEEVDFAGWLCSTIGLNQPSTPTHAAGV

[5] = system: Tyrosine-protein kinase ABL1 (Homo sapiens), P00519 [H396P]; assay: Inhibition of nonphosphorylated ABL1 H396P mutant (unknown origin) assessed as residual activity at 1000 nM by KINOMEscan analysis relative to control
[6] = biological target: T3, MAP kinase-activated protein kinase 5 (Homo sapiens) (UniProt Q8IW41); assay: Inhibition of MAPKAPK5 (unknown origin) assessed as residual activity at 1000 nM by KINOMEscan analysis relative to control
T3 sequence (whole entry): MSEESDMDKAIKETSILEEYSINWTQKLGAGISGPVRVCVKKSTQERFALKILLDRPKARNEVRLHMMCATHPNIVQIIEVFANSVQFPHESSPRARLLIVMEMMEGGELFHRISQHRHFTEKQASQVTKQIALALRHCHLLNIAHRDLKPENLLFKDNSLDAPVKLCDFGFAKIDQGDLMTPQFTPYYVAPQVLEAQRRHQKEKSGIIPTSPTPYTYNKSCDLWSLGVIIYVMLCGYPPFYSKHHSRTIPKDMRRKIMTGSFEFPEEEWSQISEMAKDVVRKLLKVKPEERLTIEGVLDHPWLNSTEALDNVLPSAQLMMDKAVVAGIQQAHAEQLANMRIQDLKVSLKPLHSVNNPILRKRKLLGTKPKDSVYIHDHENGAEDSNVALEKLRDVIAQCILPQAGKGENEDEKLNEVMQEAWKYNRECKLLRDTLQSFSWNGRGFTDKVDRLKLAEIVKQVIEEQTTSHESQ

[7] = biological target: Citron Rho-interacting kinase (Homo sapiens) (UniProt O14578); assay: Inhibition of CIT (unknown origin) assessed as residual activity at 1000 nM by KINOMEscan analysis relative to control
[8] = biological target: Phosphatidylinositol 4,5-bisphosphate 3-kinase catalytic subunit alpha isoform (Homo sapiens) (UniProt P42336); assay: Inhibition of PIK3CA (unknown origin) assessed as residual activity at 1000 nM by KINOMEscan analysis relative to control
Sequence of Phosphatidylinositol 4,5-bisphosphate 3-kinase catalytic subunit alpha isoform (Homo sapiens) (P42336 whole entry, canonical isoform): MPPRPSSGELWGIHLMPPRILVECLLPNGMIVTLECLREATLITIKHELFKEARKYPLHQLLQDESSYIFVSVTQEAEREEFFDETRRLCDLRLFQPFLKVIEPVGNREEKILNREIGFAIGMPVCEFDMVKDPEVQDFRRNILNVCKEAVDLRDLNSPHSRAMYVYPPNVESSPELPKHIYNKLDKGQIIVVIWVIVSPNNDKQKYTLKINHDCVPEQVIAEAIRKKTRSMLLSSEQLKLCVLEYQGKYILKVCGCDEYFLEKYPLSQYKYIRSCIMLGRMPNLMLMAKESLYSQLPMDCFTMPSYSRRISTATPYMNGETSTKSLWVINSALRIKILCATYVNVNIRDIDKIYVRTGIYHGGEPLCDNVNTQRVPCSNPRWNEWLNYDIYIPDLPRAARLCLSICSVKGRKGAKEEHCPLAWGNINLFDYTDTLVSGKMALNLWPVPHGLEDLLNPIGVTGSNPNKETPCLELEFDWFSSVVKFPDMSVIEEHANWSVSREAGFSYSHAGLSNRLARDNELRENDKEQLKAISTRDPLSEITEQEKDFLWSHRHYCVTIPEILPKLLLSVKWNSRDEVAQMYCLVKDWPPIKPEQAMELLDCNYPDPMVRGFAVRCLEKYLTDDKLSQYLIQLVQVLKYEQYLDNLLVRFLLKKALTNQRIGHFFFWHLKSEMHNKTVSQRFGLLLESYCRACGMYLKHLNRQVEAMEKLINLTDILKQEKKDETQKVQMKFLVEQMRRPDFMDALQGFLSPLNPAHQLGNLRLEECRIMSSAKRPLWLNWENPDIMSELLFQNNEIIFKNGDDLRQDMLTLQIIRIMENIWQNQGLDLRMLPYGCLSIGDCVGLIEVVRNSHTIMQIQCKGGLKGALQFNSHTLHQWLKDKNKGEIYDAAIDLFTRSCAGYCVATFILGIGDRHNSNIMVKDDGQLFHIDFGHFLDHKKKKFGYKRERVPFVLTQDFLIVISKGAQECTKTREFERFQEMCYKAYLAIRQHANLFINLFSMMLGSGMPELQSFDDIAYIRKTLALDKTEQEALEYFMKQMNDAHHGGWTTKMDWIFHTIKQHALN

[9] = biological target: Casein kinase I isoform gamma-2 (Homo sapiens) (UniProt P78368); assay: Inhibition of CSNK1G2 (unknown origin) assessed as residual activity at 1000 nM by KINOMEscan analysis relative to control
Sequence of Casein kinase I isoform gamma-2 (Homo sapiens) (P78368 whole entry, looked up, canonical isoform): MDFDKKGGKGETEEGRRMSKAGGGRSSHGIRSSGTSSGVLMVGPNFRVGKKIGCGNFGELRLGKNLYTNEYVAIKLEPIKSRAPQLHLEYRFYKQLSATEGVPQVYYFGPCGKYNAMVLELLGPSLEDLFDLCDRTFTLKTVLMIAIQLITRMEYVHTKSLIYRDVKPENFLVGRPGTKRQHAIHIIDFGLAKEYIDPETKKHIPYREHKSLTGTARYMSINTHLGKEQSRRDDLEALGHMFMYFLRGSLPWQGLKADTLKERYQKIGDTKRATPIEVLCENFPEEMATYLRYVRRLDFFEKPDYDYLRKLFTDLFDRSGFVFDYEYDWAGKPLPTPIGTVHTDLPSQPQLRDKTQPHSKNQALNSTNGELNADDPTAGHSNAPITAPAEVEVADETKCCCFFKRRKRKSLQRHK

[10] = biological target: Macrophage colony-stimulating factor 1 receptor (Homo sapiens) (UniProt P07333); assay: Inhibition of autoinhibited CSF1R (unknown origin) assessed as residual activity at 1000 nM by KINOMEscan analysis relative to control
Sequence of Macrophage colony-stimulating factor 1 receptor (Homo sapiens) (P07333 whole entry): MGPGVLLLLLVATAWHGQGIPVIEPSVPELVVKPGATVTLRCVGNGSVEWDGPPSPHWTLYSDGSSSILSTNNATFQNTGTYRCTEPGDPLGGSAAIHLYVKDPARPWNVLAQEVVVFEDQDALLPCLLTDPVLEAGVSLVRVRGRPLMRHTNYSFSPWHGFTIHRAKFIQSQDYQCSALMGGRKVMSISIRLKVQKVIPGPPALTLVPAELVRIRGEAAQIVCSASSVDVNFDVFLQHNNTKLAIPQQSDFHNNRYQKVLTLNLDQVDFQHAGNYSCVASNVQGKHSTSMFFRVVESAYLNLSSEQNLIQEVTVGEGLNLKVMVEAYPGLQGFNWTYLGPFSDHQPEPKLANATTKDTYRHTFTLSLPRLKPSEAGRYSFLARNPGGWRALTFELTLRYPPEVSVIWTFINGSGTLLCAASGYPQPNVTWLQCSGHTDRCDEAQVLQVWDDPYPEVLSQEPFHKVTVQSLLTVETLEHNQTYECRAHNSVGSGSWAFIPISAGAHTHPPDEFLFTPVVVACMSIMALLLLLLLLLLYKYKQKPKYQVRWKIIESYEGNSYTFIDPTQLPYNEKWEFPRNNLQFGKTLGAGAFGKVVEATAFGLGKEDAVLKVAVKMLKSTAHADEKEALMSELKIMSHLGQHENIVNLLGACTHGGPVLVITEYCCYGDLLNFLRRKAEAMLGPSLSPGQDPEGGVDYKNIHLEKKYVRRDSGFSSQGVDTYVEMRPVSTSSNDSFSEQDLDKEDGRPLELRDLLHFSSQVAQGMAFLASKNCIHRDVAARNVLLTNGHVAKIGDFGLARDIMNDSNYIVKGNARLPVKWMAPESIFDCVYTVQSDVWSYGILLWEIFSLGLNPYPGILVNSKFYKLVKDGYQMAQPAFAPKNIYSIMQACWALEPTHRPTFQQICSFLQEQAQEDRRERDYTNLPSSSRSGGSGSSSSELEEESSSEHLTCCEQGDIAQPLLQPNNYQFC

[11] = system: Mast/stem cell growth factor receptor Kit (Homo sapiens), P10721 [A829P]; assay: Inhibition of KIT A829P mutant (unknown origin) assessed as residual activity at 1000 nM by KINOMEscan analysis relative to control
Sequence of Mast/stem cell growth factor receptor Kit (Homo sapiens), P10721 [A829P] (P10721 whole entry A829P): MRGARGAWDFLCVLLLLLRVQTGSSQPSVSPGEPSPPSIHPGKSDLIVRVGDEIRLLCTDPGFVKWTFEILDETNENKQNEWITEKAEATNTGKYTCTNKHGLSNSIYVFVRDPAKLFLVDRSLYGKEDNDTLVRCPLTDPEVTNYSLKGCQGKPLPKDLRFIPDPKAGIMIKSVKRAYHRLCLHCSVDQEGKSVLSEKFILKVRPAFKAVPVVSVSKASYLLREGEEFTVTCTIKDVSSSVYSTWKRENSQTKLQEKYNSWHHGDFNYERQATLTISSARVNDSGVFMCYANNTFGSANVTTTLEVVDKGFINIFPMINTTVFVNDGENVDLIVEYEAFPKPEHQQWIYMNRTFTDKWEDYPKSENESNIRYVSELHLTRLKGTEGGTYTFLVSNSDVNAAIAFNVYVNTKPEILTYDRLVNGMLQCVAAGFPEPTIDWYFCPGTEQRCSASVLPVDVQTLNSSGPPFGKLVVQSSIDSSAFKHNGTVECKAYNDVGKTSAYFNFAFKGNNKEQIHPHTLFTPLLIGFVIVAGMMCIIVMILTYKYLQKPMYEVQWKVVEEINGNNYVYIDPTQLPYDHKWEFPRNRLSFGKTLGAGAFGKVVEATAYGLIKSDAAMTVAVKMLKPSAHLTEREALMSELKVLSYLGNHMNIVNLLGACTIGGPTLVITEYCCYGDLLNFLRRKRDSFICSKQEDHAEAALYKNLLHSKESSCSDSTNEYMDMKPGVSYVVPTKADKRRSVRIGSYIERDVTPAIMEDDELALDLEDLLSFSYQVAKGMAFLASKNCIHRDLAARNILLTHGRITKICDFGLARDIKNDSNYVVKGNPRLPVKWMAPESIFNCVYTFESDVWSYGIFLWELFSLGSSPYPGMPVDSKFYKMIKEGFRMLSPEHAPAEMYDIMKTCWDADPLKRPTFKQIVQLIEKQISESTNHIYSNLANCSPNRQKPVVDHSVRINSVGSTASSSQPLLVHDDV

Sequence of Bone morphogenetic protein receptor type-1A (Homo sapiens) (P36894 whole entry): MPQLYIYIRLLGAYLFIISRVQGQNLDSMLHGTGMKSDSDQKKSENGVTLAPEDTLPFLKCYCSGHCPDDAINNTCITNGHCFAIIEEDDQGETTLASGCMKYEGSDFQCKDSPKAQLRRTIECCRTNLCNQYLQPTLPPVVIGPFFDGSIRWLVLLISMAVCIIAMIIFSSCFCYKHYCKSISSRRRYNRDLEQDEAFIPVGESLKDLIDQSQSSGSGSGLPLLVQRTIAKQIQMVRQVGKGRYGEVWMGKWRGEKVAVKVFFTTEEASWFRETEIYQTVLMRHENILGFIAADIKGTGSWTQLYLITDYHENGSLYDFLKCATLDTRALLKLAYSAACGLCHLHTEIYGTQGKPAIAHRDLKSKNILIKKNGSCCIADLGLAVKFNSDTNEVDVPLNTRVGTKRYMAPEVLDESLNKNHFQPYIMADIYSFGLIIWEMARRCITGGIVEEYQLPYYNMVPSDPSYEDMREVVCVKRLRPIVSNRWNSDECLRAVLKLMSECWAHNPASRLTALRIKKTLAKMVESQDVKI

Row | SMILES | Activity [1] [%] | Activity [2] [%] | Activity [3] [%] | Activity [4] [%] | Activity [5] [%] | Activity [6] [%] | Activity [7] [%] | Activity [8] [%] | Activity [9] [%] | Activity [10] [%] | Activity [11] [%]
1 | COc1cc2ncnc(N[C@H](C)c3cccc4ccccc34)c2cc1OC | 100 | 83 | 100 | 96 | 100 | 87 | 85 | 73 | 100 | 93 | 94
2 | COc1cc2nc(C)nc(N[C@H](C)c3cccc(-c4cn[nH]c4)c3)c2cc1OC | 97 | 59 | 67 | 85 | 71 | 85 | 93 | 96 | 100 | 97 | 93
